# Measured values published in patent US4772594A, “Prodrug compounds, process for the preparation thereof and sustained release preparation comprising the same” (Fujisawa Pharmaceutical Co., Ltd., priority 1986, dated 1988).
# Where two headings read alike, the source gives them in different places.
# Assays:
# [1] = test system: Mouse leukemia cell L 1210; assay: Anti tumor test 1: survival of mice implanted with L 1210 leukemia; format: in vivo; conditions: for T/C: mean survival time vs control
# Source text: The mixture of chloroform and methanol (8:2 V/V) containing egg yolk lecithin (245 μmole), egg yolk sphingomyelin (105 μmole) and Cytarabine prodrug (Example 8) (87.5 and 262.5 μmole respectively) was taken in a roundbottom flask. Liposome suspensions containing Cytarabine prodrug (Concentration: 10 and 20 μmole/ml respectively) were obtained in a similar manner to that of the above-mentioned method. Mouse leukemia cell L 1210 (10^5 cells) were implanted intraperitoneally into BDF female mice (7 weeks).
# After 24 hours after inoculation, Cytarabine aqueous solution (dose: 1000 and 3000 μmole/kg respectively), above-mentioned liposome suspension containing Cytarabine prodrug (dose: 100 and 300 μmole/kg respectively)and aqueous solution of N^4 -behenoyl-1-β-arabinofuranosylcytosine (hereinafter referred to as BHAC) which is a known compound as Cytarabine prodrug and is shown by the following structure (dose: 100 and 300 μmole/kg respectively) were administered intravenously to the mouse at a volume of 0.2 ml or 0.3 ml (in case the administration at the dose of 300 μmole/kg of Cytarabine prodrug) per 20 g of mouse body weight. After the treatment, survival of the mice was recorded. [drawing 9]
# [2] = test system: Mouse leukemia cell L 1210; assay: as above; format: in vivo; conditions: i.v. aqueous solution, 100 μmole/kg
# [3] = test system: human lung adenocarcinoma A 549; assay: Anti tumor test 2: growth inhibition of A 549 under the subrenal capsule of mice; format: in vivo; conditions: Day 14, i.v. aqueous solution, 1000 μmole/kg at Day 1, 5, 9
# Source text: The mixture of chloroform and methanol (3:1 V/V) containing egg yolk lecithin (245 μmole), egg yolk sphingomyelin (105 μmole) and Cyarabine prodrug (Example 8) (87.5 and 157.5 μmole respectively) was taken in a round-bottom flask. Liposome suspensions containing Cytarabine prodrug (Concentration: 10 and 18 μmole/ml respectively) were obtained in a similar manner to that of the above-mentioned method.
# A fragment of human lung adenocarcinoma A 549 was implanted under the subrenal capsule of BDF female mouse (8 weeks). Cytarabine aqueous solution (dose: 1000 μmole/kg) and above-mentioned liposome suspension containing Cytarabine prodrug (dose: 100 and 180 μmole/kg respectively)were administered intravenously to the mice at a volume of 0.2 ml per mouse body weight 20 g at Day 1, 5 and 9 after implantation. The tumor volume at Day 14 after implantation was measured and the growth inhibition percent was calculated. (In this test, to clarify the anti tumor effect of each preparation, 17-allyl-1,14-dihydroxy-12-[2-(4-hydroxy-3- methoxycyclohexyl)-1-methylvinyl]-23,25-dimethoxy-13,19,21,27-tetramethyl- 11,28-dioxa-4-azatricyclo[22.3.1.0^4,9 ]octacos-18-ene-2,3,10,16-tetraone as immunosuppressive substance(dose: 32 mg/kg) was administered subcutaneously at Day 1, 2, 5, 7, 9 and 12 after implanation.)
# [4] = Conversion Test 1: conversion half life of prodrug to parent compound in rat serum; format: in vitro ADME; conditions: rat, serum; for half-life: Half life (t 1/2)
# Experimental: Chloroform solution containing egg yolk lecithin (84 μmole), egg yolk sphingomyelin (36 μmole) and Mitomycin C prodrug ( 6 μmole) obtained in the below-mentioned Example 1 or 2 was poured into a round-bottom flask and evaporated to dryness.
# To this were added sodium cholate (258 mg) and pH 7.4 phosphate buffered saline (hereinafter referred to as PBS) (4.8 ml) and the mixture was agitated to give a clear purple solution.
# Sodium cholate was removed from the solution by the Lipoprep dialyzer (detergent removal apparatus prepared by Diachema Co., Ltd.) to give a liposome suspension containing Mitomycin C prodrug.
# Chloroform solution containing egg yolk lecithin (70 μmole), egg yolk sphingomyelin (30 μmole) and FR900482 substance prodrug (Example 6)(5 μmole) was poured into a round-bottom flask and a liposome suspension containing FR900482 substance prodrug was obtained in a similar manner to that of above-mentioned method.
# Above-mentioned two liposome suspensions containing Mitomycin C prodrug were each diluted with PBS at 2.5 times.
# The liposome suspension containing FR900482 substance prodrug was diluted with PBS to obtain the drug concentration of 0.5 μmole/ml and was filtered through millex-GV (trademark: prepared by Millipore Co., Ltd.) filter (0.22μ).
# After the liposome suspension and ethanol solution of each prodrug (0.5 ml) were added to mouse, rat or human serum (4.5 ml, 37° C.), samples were taken periodically and the concentration of each prodrug was determined by high-performance liquid chromotography.
# Conversion half lives (t 1/2) of each prodrug to each parent compound in various kinds of serum were calculated by the concentration of each prodrug remaining at each time.
# [5] = Bioavailability Test 3: blood concentration after i.v. emulsion or aqueous solution in mice; format: in vivo, ICR female mice; conditions: mouse, iv, 0.8 umol/animal, read-out: Blood concentration of Mitomycin C Prodrug (Example 1)
# Experimental: The liposome suspension containing Mitomycin C prodrug (Example 1), which was prepared in the above Bioavailability Test 1, was diluted with PBS at the concentration of Mitomycin C prodrug of 2.5 μmole/ml and was filtered through a polycarbonate membrane (0.1μ). 0.2 ml of PBS solution of Mitomycin C or the liposome suspension containing Mitomycin C prodrug was administered intravenously to ICR female mice (8 weeks, body weight: about 25 g, 3 per one group) respectively, and the blood samples were withdrawn by cardiac puncture under anesthesia. The blood concentrations of Mitomycin C and Mitomycin C prodrug were determined in accordance with the same procedures as described in Bioavailability Test 1.
# Each chloroform solution of Mitomycin C prodrug (Example 1) (4 μmole), Panacete 800 (trademark, prepared by Nihon Yushi Co., Ltd.) (40 mg), egg yolk lecithin (14 mg) and HCO-60 (trademark, prepared by Nikko Chemicals Co., Ltd.) (8 mg) was combined in a round-bottom flask and evaporated to dryness. To this was added PBS (1 ml) and emulsified with a sonicator to give an emulsion containing Mitomycin C prodrug. Each chloroform solution of liitomycin C prodrug (Example 1) (4 μmole) and HCO-60 (24 mg) was combined in a roundbottom flask and evaporated to dryness. The residue was dispersed in 1 ml of PBS and agitated vigorously to yield a clear solution. 0.2 ml of each preparations thus obtained which contained the prodrug at 4 μmole/ml, was administered to mice and the blood concentrations of Mitomycin C and Mitomycin C prodrug were determined according to the same procedures as described in Bioavailability Test 2.
# [6] = Toxicity test: body weight change after i.v. administration to mice; format: in vivo, ICR male mice; conditions: mouse
# Experimental: Each chloroform solution of egg yolk lecithin (126 μmole), egg yolk sphingomyelin (54 μmole) and Mitomycin C prodrug (Example 1) (3.75, 24 and 37.5 μmole respectively) was combined in a round-bottom flask and evaporated to dryness. Liposome suspensions containing Mitomycin C prodrug were obtained according to the same procedures as described above. The liposome suspensions were diluted with PBS to obtain the desired drug concentration (0.15, 0.96 and 1.50 mg/ml as Mitomycin C) and were filtered through polycarbonate membranes (0.1 μ). PBS solution of Mitomycin C (dose: 1.0 and 6.4 mg/kg/day respectively) or above-mentioned liposome suspension containing Mitomycin C prodrug (dose: 1.0, 6.4 and 10 mg/kg/day as Mitomycin C) were administered intravenously to ICR male mice (6 week) at Day 1, 3 and 5 and the body weight change was recorded from Day 1 to 15.
# [7] = Bioavailability Test 1: blood concentration after i.v. administration to rats; parameters: species or system SD male rats; conditions: rat, in vivo, iv
# Experimental: Chloroform solution (14.3 ml) containing egg yolk lecithin (126 μmole), egg yolk sphingomyelin (54 μmole) and Mitomycin C prodrug (Example 1) (24 μmole) was poured into a round-bottom flask and evaporated at one hour. To this were added sodium cholate (194 mg) and PBS (6 ml) and agitated. A liposome suspension containing Mitomycin C prodrug was obtained according to a similar manner to that of above-mentioned method. The liposome suspension thus prepared was diluted with PBS to obtain the drug concentration of 3.0 μmole/ml and was filtered through a polycarbonate membrane (0.1 μ). 1.0 ml of PBS solution of Mitomycin C or the liposome suspension containing Mitomycin C prodrug prepared by the above-mentioned method was administered intravenously to SD male rats (7 weeks, body weight: about 300 g, 4 per one group) and blood samples were withdrawn at appropriate intervals from subclavian vein. The plasma samples were deproteinzed and the concentration of Mitomycin C was determined by high-performance liquid chromatography.
# While Mitomycin C prodrug in the blood was determined by high-performance liquid chromatography after extraction with ethanol from the freeze-dried blood samples.
# [8] = Bioavailability Test 2: blood concentration after i.v. administration to mice; format: in vivo, ICR female mice; conditions: iv, mouse, i.v. PBS solution of Mitomycin C
# Experimental: The blood concentrations of Mitomycin C and Mitomycin C prodrug were determined in accordance with the same procedures as described in Bioavailability Test 1.
# [9] = i.v. BHAC aqueous solution, 100 μmole/kg
# [10] = i.v. BHAC aqueous solution, 300 μmole/kg
# [11] = i.v. aqueous solution, 1000 μmole/kg
# [12] = i.v. aqueous solution (4 μmole/ml, 0.2 ml)
# [13] = i.v. emulsion (4 μmole/ml, 0.2 ml)
structure (smiles),measurement,setting,value
"CCCCCCCCCCCCCCCCCCCCCC(=O)Nc1ccn([C@@H]2O[C@H](CO)[C@@H](O)[C@@H]2O)c(=O)n1 [BHAC, N^4-behenoyl-1-β-arabinofuranosylcytosine]",Mean survival time,[1]; [9],11.0 ± 0.3 days
same,Mean survival time,[1]; [10],15.3 ± 0.5 days
same,T/C,[1]; [9],122%
same,T/C,[1]; [10],170%
"Nc1ccn([C@@H]2O[C@H](CO)[C@@H](O)[C@@H]2O)c(=O)n1 [Cytarabine, 1-β-D-arabinofuranosylcytosine]",Mean survival time,[2],9.5 ± 0.2 days
same,T/C,[2]; mean survival time vs control,106%
same,Tumor volume mean value ± standard error,[3],17.7 ± 3.2 mm^3
same,Inhibition,[3]; tumor growth,41.7%
same,Mean survival time,[1]; [11],10.8 ± 0.3 days
same,T/C,[1]; [11],120%
"CO[C@@]12[C@H](COC(N)=O)C3=C(C(=O)C(C)=C(N)C3=O)N1C[C@H]1[C@@H]2N1C(=O)CNC(=O)O[C@H]1CC[C@@]2(C)C(=CC[C@H]3[C@@H]4CC[C@H]([C@H](C)CCCC(C)C)[C@@]4(C)CC[C@@H]32)C1 [Example 1, [1aS-(1aα, 8β, 8aα, 8bα)]-6-amino-8-carbamoyloxymethyl-N'-[N-(cholest-5-en-3β-oxycarbonyl)glycyl]-1,1a,2,8,8a,8b-hexahydro-8a-methoxy-5-methy-aziridino[2',3':3,4]pyrrolo [1,2-a]indole-4,7-dione]",Half life (t 1/2),[4],10.0 h
same,half-life,[4],5.7 h
same,concentration at 1 h,[5]; [12],186 µM
same,concentration at 4 h,[5]; [12],73.9 µM
same,concentration at 7 h,[5]; [12],22.2 µM
same,concentration at 1 h,[5]; [13],251 µM
same,concentration at 4 h,[5]; [13],81.6 µM
same,concentration at 7 h,[5]; [13],39 µM
same,Body weight,"[6]; i.v. liposome suspension, 1.0 mg/kg/day as Mitomycin C at Day 1, 3, 5, 1 day",32.78 g
same,Body weight,"[6]; i.v. liposome suspension, 6.4 mg/kg/day as Mitomycin C at Day 1, 3, 5, 1 day",33.86 g
same,Body weight,"[6]; i.v. liposome suspension, 10.0 mg/kg/day as Mitomycin C at Day 1, 3, 5, 1 day",35.14 g
"CO[C@@]12[C@H](COC(N)=O)C3=C(C(=O)C(C)=C(N)C3=O)N1C[C@H]1[C@@H]2N1C(=O)CO[C@H]1CC[C@@]2(C)C(=CC[C@H]3[C@@H]4CC[C@H]([C@H](C)CCCC(C)C)[C@@]4(C)CC[C@@H]32)C1 [Example 2, [1aS-(1aα, 8β, 8aα,8bα)]-6-amino-8-carbamoyloxymethyl-N-(cholest-5-en-3β-oxyacetyl) 1,1a,2,8,8 a,8b-hexahydro-8a-methoxy-5-methyl-aziridino [2',3':3,4]pyrrolo[1,2-a]indole-4,7-dione]",Half life (t 1/2),[4],17.3 h
same,half-life,[4],9.3 h
CO[C@@]12[C@H](COC(N)=O)C3=C(C(=O)C(C)=C(N)C3=O)N1C[C@@H]1N[C@@H]12 [Mitomycin C],concentration at 5 min,[7],10.7 µM
same,concentration at 0.25 h,[7],5.54 µM
same,concentration at 0.5 h,[7],3.32 µM
same,concentration at 1 h,[7],1.04 µM
same,concentration at 2 h,[7],0.11 µM
same,concentration at 5 min,[8]; 5 min,9.15 µM
same,concentration at 0.25 h,[8]; 15 min,2.76 µM
same,concentration at 0.5 h,[8]; 30 min,1.57 µM
same,concentration at 1 h,[8]; 1 hr,0.11 µM
same,Body weight,"[6]; i.v. PBS solution, 1.0 mg/kg/day at Day 1, 3, 5, 1 day",33.78 g
same,Body weight,"[6]; i.v. PBS solution, 1.0 mg/kg/day at Day 1, 3, 5, 5 days",33.86 g
same,Body weight,"[6]; i.v. PBS solution, 1.0 mg/kg/day at Day 1, 3, 5, 15 days",35.26 g
same,Body weight,"[6]; i.v. PBS solution, 6.4 mg/kg/day at Day 1, 3, 5, 1 day",35.54 g
same,Body weight,"[6]; i.v. PBS solution, 6.4 mg/kg/day at Day 1, 3, 5, 5 days",29.36 g
same,"Death (in body weight column, 15 days)","[6]; i.v. PBS solution, 6.4 mg/kg/day at Day 1, 3, 5, at 8 days",All died
